These are literature values, as cited in the CATMoS acute toxicity set (Mansouri et al. 2021).

Molecules are shown by their SMILES.

This series in a line: rat acute oral toxicity. As to conditions: in vivo. An excerpt: […]The data set underlying the modeling effort for this project was initially compiled by NICEATM and U.S. EPA’s CCTE. Briefly, LD50 data were collected from rat acute oral systemic toxicity tests, including limit tests, ranges/confidence intervals, and discrete LD50 values. The full data set included 21,200 LD50 entries for 15,688 substances. […] Data were reviewed to ensure that LD50 values with obvious errors in the extracted data such as unit conversion errors (e.g., comma and decimal separator misplacements) were either fixed or removed. After this review, 16,209 LD50 values remained. Many of the chemicals represented had multiple LD50 entries, requiring that a single representative value per Chemical Abstracts Service Registry Number (CASRN) identifier be defined to facilitate modeling efforts. Based on ATWG feedback and to define the representative LD50 as a protective value while accounting for the distribution across multiple LD50s, the median of the lowest quartile was computed using only discrete LD50 values (omitting limit test data and range and confidence interval data). A detailed summary of the data compilation is available online on the NICEATM webpage dedicated to the collaborative modeling project (NTP 2020).
[…][…] For categorical designations, limit test and range/confidence interval LD50 data were integrated wherever possible. As such, the number of chemicals with end point values/calls varies across the modeling end points (Table 3) based on whether chemicals had representative LD50 values and/or other data. If a chemical had both, the representative value was used to determine categorical calls rather than limit test data. Some data were useable only for certain end points and categories depending on the thresholds. For example, ranges that spanned multiple hazard categories were considered only for the binary (very toxic/nontoxic) end points and omitted from rendering a determination for hazard category assignment.
[…]The final data set comprising 11,992 chemicals was split into training and evaluation sets […], respectively. This process was performed semirandomly by ordering chemicals based on the five end points (categorical and continuous LD50 values) and partitioning every fourth record into the evaluation set accordingly. This approach was taken to ensure an equivalent distribution of the LD50 values and the different hazard categories between the training and the evaluation sets without supervised sampling of the chemicals based on structures (Figure 1A). The sources of the chemical structures were also kept equivalent between the two sets, with chemical structures obtained from DSSTox, being the highest quality, representing over 75% of each set (Figure 1B).
The LD50 is the dose at which mortality reaches 50%. As for `CCOC(=O)C(Br)C#N` (stereo not drawn), the LD50 is 420 mg/kg. Regarding `NNc1ccccc1`, the LD50 was 188 mg/kg.

For `NNc1ccc(N(CCO)CCO)nn1`, the 50% lethal dose (LD50) was 1800 mg/kg. Turning to `CCCCCC1=C(C)CCC1=O`, the LD50 was 2500 mg/kg.

For `CCCCNCC(O)COc1ccc(-c2c(-c3ccccc3)c(=O)oc3cc(OC)ccc23)cc1` (stereo not drawn), the LD50 was 500 mg/kg. In the case of `CC(C)/N=c1/cc2n(-c3ccc(Cl)cc3)c3ccccc3nc-2cc1Nc1ccc(Cl)cc1`, the 50% lethal dose (LD50) is 8400 mg/kg. With `Nc1ccc(C(=O)O)cc1`, the LD50 is 8000 mg/kg. Take `CC(=O)OC(C(=O)NC(N)=O)c1ccccc1` (stereo not drawn): the LD50 is 2100 mg/kg. As to `CN1CCC(OC(c2ccccc2)c2ccccc2)CC1`, the LD50 was 698 mg/kg. For the compound `CCOP(=O)(OCC)SC`, the LD50 is 47.1 mg/kg. Consider `COc1ccc(C(CCCc2ccccc2)N(C)C)cc1OC` (stereo not drawn), for which the LD50 is 500 mg/kg. Take `COc1ccc(OC)cc1`: the LD50 was 3600 mg/kg. Regarding `CCc1ccc2c(c1)C(=O)c1ccccc1C2=O`, the LD50 was 2800 mg/kg. With `CC(C#N)N1CCOCC1` (stereo not drawn), the LD50 is 87 mg/kg.

Turning to `CC(=O)c1ccc(O)cc1O`, the LD50 was 2830 mg/kg. On to `COC(=O)[C@@](C)(N)Cc1ccc(O)c(C)c1`, for which the LD50 is 1400 mg/kg. As for `COP(=S)(OC)SCSc1ccccc1Cl`, the 50% lethal dose (LD50) was 13 mg/kg. In the case of `COc1cc2nc(N3CCN(C(=O)C4CCCO4)CC3)nc(N)c2cc1OC` (stereo not drawn), the LD50 was 5500 mg/kg. As for `CCn1cc(C(=O)O)c(=O)c2cc(F)c(N3CCN(C)CC3)cc21`, the LD50 was 2500 mg/kg.

On to `CCOc1ccccc1N1CCN(CCC=Cc2ccc3c(c2)CCC(=O)N3)CC1`, for which the LD50 was 500 mg/kg. In the case of `NCCOCCN`, the LD50 was 961 mg/kg. As for `CC(Cl)C(=O)O` (stereo not drawn), the LD50 was 800 mg/kg. Take `O=S(=O)(Oc1ccc(Cl)cc1)c1ccccc1`: the LD50 is 1350 mg/kg.

Consider `COc1cc(C)c2c(Oc3cccc(C(F)(F)F)c3)c(OC)cc(NC(C)CCCN)c2n1` (stereo not drawn), for which the LD50 was 416 mg/kg.

Take `CC(=O)c1cc2c(cc1C)C(C)(C)C(C)C2C(C)C` (stereo not drawn): the LD50 was 2220 mg/kg. Regarding `C=CCNCC=C`, the LD50 was 578 mg/kg. Take `CC1N=C(N)CC1c1ccccc1` (stereo not drawn): the LD50 was 420 mg/kg.

As for `CCCN(N=O)C(N)=O`, the LD50 was 480 mg/kg.

Regarding `N#CN=c1ccccn1Cc1ccccc1Cl`, the LD50 is 500 mg/kg.

Regarding `C[N+](C)(N)CCCl`, the LD50 was 3400 mg/kg.

For the compound `O=C(O)Cc1ccc(-c2ccccc2F)cc1`, the LD50 is 638 mg/kg. For `O=C1CCc2cc(C(=O)CCN3CCN(c4ccccc4)CC3)ccc2N1`, the LD50 is 500 mg/kg. For `O=S(=O)(O)c1ccc(N2CCC(c3ccc(Cl)cc3)=N2)cc1`, the 50% lethal dose (LD50) is 5530 mg/kg. Consider `CC(=O)OC1CC2CCC3C(CCC4(C)C3CC(OC(C)=O)C4[N+]3(C)CCCCC3)C2(C)CC1[N+]1(C)CCCCC1` (stereo not drawn), for which the LD50 is 202 mg/kg.

Turning to `CCCCc1c(OC(=O)c2ccccc2)n(-c2ccccc2)n(-c2ccccc2)c1=O`, the LD50 is 2200 mg/kg. Turning to `Nc1ccc2c(c1)C1CCCCC1N2` (stereo not drawn), the LD50 is 275 mg/kg. Regarding `CN(C)C(=O)Nc1cccc(OC(=O)NC(C)(C)C)c1`, the median lethal dose (LD50) was 3000 mg/kg. Consider `CCO[Si](CNCCCCCCN)(OCC)OCC`, for which the 50% lethal dose (LD50) was 500 mg/kg. `C=CC[N@@+]12CC[C@@]34c5ccccc5N5C=C6[C@H]7C[C@H]8[C@@]9(CC[N@@+]8(CC=C)C/C7=C/CO)c7ccccc7N(C=C([C@@H](C[C@@H]31)/C(=C\CO)C2)[C@H]54)[C@@H]69`: the LD50 was 27.6 mg/kg. Regarding `CCC(OC(N)=O)c1ccccc1Cl` (stereo not drawn), the 50% lethal dose (LD50) was 710 mg/kg. For `COC(=O)[C@H]1[C@H]2C[C@@H]3c4[nH]c5cc(OC)ccc5c4CCN3C[C@H]2C[C@@H](OC(=O)c2cc(OC)c(OC)c(OC)c2)[C@@H]1OC`, the LD50 is 420 mg/kg. Take `CN(C)N=O`: the LD50 is 37 mg/kg.

On to `COc1cc(C(=O)N(C)C)nn1-c1cccc(Cl)c1`, for which the LD50 was 790 mg/kg.

For the compound `CCN(CCNC(=O)SCC(C)C)C(=O)SCC(C)C`, the LD50 is 2710 mg/kg. For `O=C1[C@H]2C[C@@H]3[C@@H]4[C@H]2[C@]2(Cl)[C@@H](Cl)[C@](Cl)([C@H]13)[C@@]4(Cl)C2(Cl)Cl` (racemic), the LD50 was 10 mg/kg.

Take `Oc1ccc(Nc2ccc3ccccc3c2)cc1`: the LD50 was 5200 mg/kg. On to `CN(N=O)C1CCS(=O)(=O)C1` (stereo not drawn), for which the LD50 is 750 mg/kg.

In the case of `CCOCC(C)O` (stereo not drawn), the LD50 is 4400 mg/kg. Turning to `CCC(C)(C)c1ccc(Cl)c(OC(=O)NC)c1`, the LD50 was 75 mg/kg.

Regarding `CCN(O)CC`, the LD50 was 2190 mg/kg. `C[C@@H]1CC[C@H]2[C@@H](C)C(=O)O[C@@H]3O[C@@]4(C)CC[C@@H]1[C@]32OO4`: the LD50 is 5580 mg/kg. With `CC=Cc1ccc(OCC)c(O)c1`, the median lethal dose (LD50) was 2400 mg/kg.

For the compound `C[N+](C)(C)CC(O)CC(=O)O` (stereo not drawn), the LD50 is 6890 mg/kg. Regarding `CCOP(=S)(SC(C)CC)N(C=O)CC` (stereo not drawn), the LD50 was 95.9 mg/kg. Turning to `NC(CCC(=O)O)C(=O)O` (racemic), the LD50 was 10000 mg/kg. `O=C(OC[C@H]1O[C@@H](OC(=O)c2cc(O)c(O)c(OC(=O)c3cc(O)c(O)c(O)c3)c2)[C@H](OC(=O)c2cc(O)c(O)c(OC(=O)c3cc(O)c(O)c(O)c3)c2)[C@@H](OC(=O)c2cc(O)c(O)c(OC(=O)c3cc(O)c(O)c(O)c3)c2)[C@@H]1OC(=O)c1cc(O)c(O)c(OC(=O)c2cc(O)c(O)c(O)c2)c1)c1cc(O)c(O)c(OC(=O)c2cc(O)c(O)c(O)c2)c1`: the LD50 is 2260 mg/kg. `O=C(c1ccc(Cl)cc1)n1cc(Cc2nn[nH]n2)c2ccccc21`: the LD50 was 1200 mg/kg.

With `CC(C)(C)C(=O)C(Cl)Cl`, the LD50 was 1300 mg/kg.

In the case of `N#CSc1ccc(C(=O)O)cc1`, the LD50 was 83 mg/kg. In the case of `CN(N=O)c1cccnc1`, the LD50 was 10 mg/kg. With `CC1CC2OC2CC1COC(=O)CCCCC(=O)OCC1CC2OC2CC1C` (stereo not drawn), the LD50 is 4290 mg/kg.

For `O=C(O)CCC(=O)c1ccc2oc3ccccc3c2c1`, the LD50 was 1280 mg/kg. As to `CCCCC(CC)COC(C[n+]1ccccc1)c1ccc(C2CCCC2)cc1` (stereo not drawn), the LD50 is 250 mg/kg. `COc1ccccc1NC(=O)CC(=O)c1ccccc1`: the LD50 is 1600 mg/kg. For `CCCCCCCCCc1cc(C)cc(Cc2cc(C)cc(CCCCCCCCC)c2O)c1O`, the LD50 is 33000 mg/kg. On to `O=C1c2ccc3c4c(ccc(c24)C(=O)C1(Cl)Cl)CC3`, for which the LD50 was 10600 mg/kg. For `O=C(O)Cc1cc(O)ccc1Nc1c(Cl)cccc1Cl`, the LD50 is 1430 mg/kg. `CCN(Cc1ccncc1)N=O`: the 50% lethal dose (LD50) was 40 mg/kg. In the case of `CCCCC(CC)COCCCN` (stereo not drawn), the LD50 was 320 mg/kg. Consider `NNC(=O)CSc1cc(Oc2ccc(Cl)cc2)ncn1`, for which the 50% lethal dose (LD50) is 800 mg/kg. As to `CO[Si](OC)(OC)c1ccccc1`, the LD50 is 1050 mg/kg. Take `CC(C)=CCO`: the LD50 is 810 mg/kg.

Regarding `CCCCSP(=O)(N(C)C)N(C)C`, the LD50 is 208 mg/kg.

Take `CCN(CC)CCOc1ccccc1C(=O)CCc1ccccc1`: the LD50 was 716 mg/kg. In the case of `CCOS(=O)(=O)OCC`, the LD50 was 880 mg/kg. For `SCc1cnccn1`, the 50% lethal dose (LD50) was 1700 mg/kg.

On to `CC(c1ccc(C(F)(F)F)nc1)S(C)(=O)=NC#N` (stereo not drawn), for which the LD50 is 1000 mg/kg. As for `Oc1cc2nc(C(F)(F)F)[nH]c2cc1Cl`, the LD50 is 55.5 mg/kg. On to `CN(C)CCOc1ccnc(N)n1`, for which the LD50 is 1500 mg/kg. In the case of `CCOC(CC)(C1=NCC(C)(C)CN1)c1ccc(Cl)cc1` (stereo not drawn), the LD50 is 58 mg/kg.

Take `CN=C(O)O/N=C1/SCOC1(C)C`: the LD50 is 2 mg/kg. Take `OC(CN1CCCCC1)c1cc(-c2ccccc2)on1` (stereo not drawn): the LD50 is 1980 mg/kg. Consider `CC(Br)CBr` (stereo not drawn), for which the LD50 was 741 mg/kg.
